The text below walks through data of US12594267B2, “Capsid inhibitors for the treatment of HIV” (Gilead Sciences, Inc., priority 2018, dated 2026).

Data set [1] is described as follows: Plasma PK after single oral administration in solution, cynomolgus monkey. It counts as in vivo. The procedure:
(§1) An oral formulation containing a compound of Formula (Ia) in […], 20% propylene glycol, 45 PEG 300, and 30% 0.01 N HCl was prepared. The formulation was orally administered to male rat, dog, cynomolgus monkey, and rhesus monkey according to the doses shown in Table 8 below.

Data set [2] can be described thus: IV AUC used as reference for % F of capsules. Also on record: species or system beagle dogs. The note with it: beagle, dog, in vivo; IV at 1 mg/kg; reference for % F in Table 9; read-out: average IV AUC0-72h.
The nature of data set [3]: Plasma PK after single oral administration in solution, rat. The class given is in vivo, Sprague-Dawley Rat. On the procedure:
as §1

Data set [4] is described as follows: Plasma PK after single oral administration in solution, rhesus monkey. The class given is in vivo. On the procedure: as §1
The nature of data set [5]: PK after oral administration of spray-dried dispersion (SDD) tablets in dogs. It counts as in vivo. The note with it: beagle dogs, 300 mg fixed dose. The procedure:
A tablet, prepared from a spray-dried dispersion of a sodium salt of the compound of Formula (Ia), was prepared in a composition shown in Table T below (with an outer film coating made of Opadry® II White 85F18422, wherein the outer film coating provides a 3% weight gain based on the uncoated tablet) and was administered orally at 300 mg fixed dose to 6 beagle dogs (Table U) and the pharmacokinetic (PK) profile was determined. […] Plasma concentrations of the compound of Formula (Ia) were maintained above the target trough concentration of 20 nM for at least 14 days (2 weeks).

[6] abbreviates: male, plasma, single oral 4.0 mg/kg, solution in 5% ethanol/20% propylene glycol/45% PEG 300/30% 0.01 N HCl, mean ± SD, n=3.
Setting [7] is: male, Sprague-Dawley, plasma, rat, single oral 5.0 mg/kg, solution in 5% ethanol/20% propylene glycol/45% PEG 300/30% 0.01 N HCl, mean ± SD, n=3.
Setting [8] is: dog, plasma, oral SDD tablet of the sodium salt (Table T composition, Opadry II White film coat), mean ± SD, n=6.

Each structure is given as a SMILES string.

On to `CC(C)(C#Cc1ccc(-c2ccc(Cl)c3c(NS(C)(=O)=O)nn(CC(F)(F)F)c23)c([C@H](Cc2cc(F)cc(F)c2)NC(=O)Cn2nc(C(F)(F)F)c3c2C(F)(F)[C@@H]2C[C@H]32)n1)S(C)(=O)=O` [Formula (Ia), N—((S)-1-(3-(4-chloro-3-(methylsulfonamido)-1-(2,2,2-trifluoroethyl)-1H-indazol-7-yl)-6-(3-methyl-3-(methylsulfonyl)but-1-yn-1-yl)pyridin-2-yl)-2-(3,5-difluorophenyl)ethyl)-2-((3bS,4aR)-5,5-difluoro-3-(trifluoromethyl)-3b,4,4a,5-tetrahydro-1H-cyclopropa[3,4]cyclopenta[1,2-c]pyrazol-1-yl)acetamide], for which the bioavailability in data set [1] (male, plasma, single oral 4.0 mg/kg, same solution, calculated based on AUC0-24h, mean ± SD, n=3, read-out: F (oral bioavailability)) was 2.2 ± 0.6%; in data set [3] (male, Sprague-Dawley, plasma, rat, single oral 5.0 mg/kg, same solution, calculated based on AUC0-72h, mean ± SD, n=3, read-out: F (oral bioavailability)), 21.7 ± 8.9%; in data set [4] (male, plasma, single oral 4.0 mg/kg, same solution, calculated based on AUC0-72h, mean ± SD, n=3, read-out: F (oral bioavailability)), 4.4 ± 1.7%. For the same compound, the Cmax in data set [1] (setting [6]) was 17.7 ± 5.6 µM; in data set [3] (setting [7]), 336 ± 116 µM; in data set [4] (setting [6]) it was 29.4 ± 7.5 µM; in data set [5] (setting [8]) it was 718 ± 409 nM. Also, the Tmax in data set [1] (setting [6]) is 8.7 ± 3.1 h; in data set [3] (setting [7]) it was 10 ± 3.5 h; in data set [4] (setting [6]) it was 18.7 ± 9.2 h; in data set [5] (setting [8]), 5.3 ± 3.3 h. The AUC(0-t) was determined as 298 ± 85 µM·h in data set [1] (male, plasma, single oral 4.0 mg/kg, solution in 5% ethanol/20% propylene glycol/45% PEG 300/30% 0.01 N HCl, mean ± SD, n=3, read-out: AUC0-24h); 13.5 µM·h in data set [2]; 13500 ± 3930 µM·h in data set [3] (male, Sprague-Dawley, plasma, rat, single oral 5.0 mg/kg, solution in 5% ethanol/20% propylene glycol/45% PEG 300/30% 0.01 N HCl, mean ± SD, n=3, read-out: AUC0-72h); 972 ± 367 µM·h in data set [4] (male, plasma, single oral 4.0 mg/kg, solution in 5% ethanol/20% propylene glycol/45% PEG 300/30% 0.01 N HCl, mean ± SD, n=3, read-out: AUC0-72h); 15.8 ± 10 µM·h in data set [5] (dog, plasma, oral SDD tablet of the sodium salt (Table T composition, Opadry II White film coat), mean ± SD, n=6, read-out: AUC0-72h). In addition, the “F % (bioavailability), in words” value in data set [1] (oral solution) is “low”; in data set [3] (rats, oral solution) it was “moderate”; in data set [4] (oral solution), “low”. Besides, the AUC(0-inf) in data set [3] (setting [7]) turned out to be 25200 ± 10200 µM·h; in data set [4] (setting [6]), 1130 ± 446 µM·h; in data set [5] (setting [8]) it was 18.5 ± 11.1 µM·h. Further, the “Time plasma concentrations maintained above the target trough concentration of 20 nM” value in data set [5] (oral SDD tablet of the sodium salt) is “at least 14 days”. In data set [5] (dog, plasma, oral SDD tablet of the sodium salt (Table T composition, Opadry II White film coat), mean ± SD, n=6, read-out: C72h), the concentration at 72 h came to 61.4 ± 30 nM.
